What was measured:
[1] = Largest Soluble Hydrocarbon (LSH); type: physicochemical; details: test material to hydrocarbon ratio approximately 1:1 to 1:2 by weight, no haze to the naked eye
Description: Largest Soluble Hydrocarbon (LSH): The LSH of each hydrofluorothioether and competitive example was determined by mixing the compound with hydrocarbons of varying molecular weight (CnH2n+2, where n=9 to 24) in a test material to hydrocarbon ratio of approximately 1:1 to 1:2 by weight at room temperature (23° C.) and at 50° C. […] A larger value of n is interpreted herein to indicate a greater ability of the hydrofluorothioether to clean hydrocarbons.
Table 2 summarizes results of Largest Soluble Hydrocarbon (LSH) testing of Examples 1-3 and Comparative Examples CE1-CE5.

[2] = Atmospheric lifetime from relative rate studies with hydroxyl radicals; type: physicochemical; details: rate of reaction with hydroxyl radicals relative to CH3Cl reference
Description: Atmospheric Lifetime and Global Warming Potential (GWP): The atmospheric lifetime of each test material was determined from relative rate studies utilizing chloromethane (CH3Cl) as a reference compound. The pseudo-first order reaction rates of the reference compound and the test compound with hydroxyl radicals (·OH) was determined in a laboratory chamber system. The atmospheric lifetime of the reference compound is documented in the literature. Based on this value and the pseudo-first order rates measured in the chamber experiments, the atmospheric lifetime for each specimen was calculated from the reaction rates for the test compound relative to the reference compounds and the reported lifetime of the reference compounds as shown below:
[formula] where τx is the atmospheric lifetime of test material, τr is the atmospheric lifetime of the reference compound, and kx and kr are the rate constants for the reaction of hydroxyl radical with test material and the reference compound, respectively. The concentrations of gases in the test chamber were quantified by Fourier transform infrared spectroscopy (FTIR). The measured atmospheric lifetime value of each fluid was subsequently used for the GWP calculation.

rats = test: Repeat dose inhalation toxicity in rats; type: in vivo; details: 3 male rats, 750 ppm, 6-hour/day, five day repeated exposure
Description: Toxicity: The repeat dose inhalation toxicity in rats was determined by a five day repeated exposure of 3 male rats to 750 ppm of the test compound for 6 hours per day.
The repeat dose inhalation toxicity in rats was determined by a five day repeated exposure of 3 male rats to 750 ppm (6-hour/day) of Example 2.

Compound	LSH (n in CnH2n+2) ([1]; 23° C.)	LSH (n in CnH2n+2) ([1]; 50° C.)	Atmospheric Lifetime [2]	clinical signs of toxicity, body weights, organ weights (rats)	histopathological effects in respiratory tract, liver, kidneys (rats)
CSC(F)(C(F)(F)F)C(F)(F)F [Example 2, perfluoroisopropyl methyl thioether]	18	>23	0.01 years	no adverse clinical signs of toxicity, changes in body weights, or organ weights (lungs, liver, and kidneys)	No adverse histopathological effects were observed in the respiratory tract, liver, or kidneys
CSC(F)(F)C(F)(F)C(F)(F)C(F)(F)F [Example 1, n-C4F9—S—CH3]	18	21	–	–	–

The next lines start with results.

LSH (n in CnH2n+2) ([1]; 23° C.)	LSH (n in CnH2n+2) ([1]; 50° C.)	Compound	Atmospheric Lifetime [2]	clinical signs of toxicity, body weights, organ weights (rats)	histopathological effects in respiratory tract, liver, kidneys (rats)
10	10	COC(F)(F)C(F)(F)C(F)(F)F [CE2, CF3(CF2)2—O—CH3]	5.0 years	–	–
14	17	FC(F)(F)CC(F)(F)CCl [CE5]	–	–	–
9	9	COC(F)(F)C(F)(F)C(F)(F)C(F)(F)F [CE1, n-C4F9—O—CH3]	–	–	–

— US12227721B2, “Hydrofluorothioethers and methods of using same” (3M INNOVATIVE PROPERTIES COMPANY, priority 2020, dated 2025)
